Results taken from patent US6211214A, “Biphenyl ether oxazolines and their use as pest-control agents” (Bayer Aktiengesellschaft, priority 1995, dated 2001).

Assay: log p (partition coefficient octanol/water, determined experimentally from reversed phase HPLC)
Format: physicochemical
Conditions: for chromatographic logP: reversed phase hplc
Text: [log p=logarithm of the partition coefficient p of the substance between the solvents octanol and water, determined experimentally from reversed phase HPLC]

| Structure (SMILES) | chromatographic logP | chromatographic logP (A isomer) | chromatographic logP (B isomer) | other results |
| --- | --- | --- | --- | --- |
| CON=C(C)C(C)(C)Oc1ccc(-c2ccc(C3COC(c4c(F)cccc4F)=N3)cc2)cc1 (stereo not shown) [Example 100] | 5.14 |  |  |  |
| CON=C(c1ccccc1F)C(C)Oc1ccc(-c2ccc(C3COC(c4c(F)cccc4F)=N3)cc2)cc1 (stereo not shown) [Example 108] | 5.01 |  |  |  |
| CCON=C(COc1ccc(-c2ccc(C3COC(c4c(F)cccc4F)=N3)cc2)cc1)c1ccc(C(F)(F)F)cc1 (stereo not shown) [Example 112] |  | 5.87 | 5.57 |  |
| O=C(COc1ccc(-c2ccc(C3COC(c4c(F)cccc4F)=N3)cc2)cc1)c1ccc(OC(F)F)cc1 (stereo not shown) [Example 114] | 4.16 |  |  |  |
| CON=C(COc1ccc(-c2ccc(C3COC(c4c(F)cccc4F)=N3)cc2)cc1)c1cccc(Cl)c1 (stereo not shown) [Example 115] |  | 5.52 | 5.19 |  |
| CCON=C(COc1ccc(-c2ccc(C3COC(c4c(F)cccc4F)=N3)cc2)cc1)c1cccc(Cl)c1 (stereo not shown) [Example 116] |  | 5.89 | 5.54 |  |
| CCON=C(COc1ccc(-c2ccc(C3COC(c4c(F)cccc4F)=N3)cc2)cc1)c1ccc(Br)cc1 (stereo not shown) [Example 119] |  |  |  | log p (A isomer): 6.03; log p (B isomer): 5.72 |
| C=CCON=C(C)C(C)Oc1ccc(-c2ccc(C3COC(c4c(F)cccc4Cl)=N3)cc2)cc1 (stereo not shown) [Example 120] |  | 5.7 | 5.81 |  |
| CCON=C(COc1ccc(-c2ccc(C3COC(c4c(F)cccc4F)=N3)cc2)cc1)c1cccc(C(F)(F)F)c1 (stereo not shown) [Example 122] |  | 6.18 | 5.87 |  |
| CC(=NOC(C)C)C(C)Oc1ccc(-c2ccc(C3COC(c4c(F)cccc4Cl)=N3)cc2)cc1 (stereo not shown) [Example 123] |  | 6.15 | 6.3 |  |
| C=CCON=C(C)COc1ccc(-c2ccc(C3COC(c4c(F)cccc4Cl)=N3)cc2)cc1 (stereo not shown) [Example 125] |  | 5.04 | 5.11 |  |
| CON=C(COc1ccc(-c2ccc(C3COC(c4c(F)cccc4F)=N3)cc2)cc1)c1ccc(Cl)cc1 (stereo not shown) [Example 130] |  | 5.27 | 5.54 |  |
| O=C(COc1ccc(-c2ccc(C3COC(c4c(F)cccc4F)=N3)cc2)cc1)c1cc(Cl)ccc1Cl (stereo not shown) [Example 132] | 4.78 |  |  |  |
| CON=C(COc1ccc(-c2ccc(C3COC(c4c(F)cccc4F)=N3)cc2)cc1)c1ccc(C)cc1 (stereo not shown) [Example 133] |  | 5.07 | 5.35 |  |
| CC(COc1ccc(-c2ccc(C3COC(c4ccccc4Cl)=N3)cc2)cc1)=NOCc1ccccc1 (stereo not shown) [Example 137] |  | 5.55 | 5.62 |  |
| C=CCON=C(C)COc1ccc(-c2ccc(C3COC(c4ccccc4Cl)=N3)cc2)cc1 (stereo not shown) [Example 142] |  | 5.12 | 5.2 |  |
| C=CCON=C(C)C(C)Oc1ccc(-c2ccc(C3COC(c4ccccc4Cl)=N3)cc2)cc1 (stereo not shown) [Example 143] |  | 5.45 | 5.57 |  |
| CCON=C(C)C(C)Oc1ccc(-c2ccc(C3COC(c4ccccc4Cl)=N3)cc2)cc1Cl (stereo not shown) [Example 144] |  | 5.83 | 6.01 |  |
| CC(=NOC(C)C)C(C)Oc1ccc(-c2ccc(C3COC(c4ccccc4Cl)=N3)cc2)cc1Cl (stereo not shown) [Example 145] |  | 6.3 | 6.44 |  |
| CC(=O)C(C)(C)Oc1ccc(-c2ccc(C3COC(c4c(F)cccc4Cl)=N3)cc2)cc1 (stereo not shown) [Example 151] | 4.48 |  |  |  |
| CON=C(COc1ccc(-c2ccc(C3COC(c4c(F)cccc4F)=N3)cc2)cc1)c1ccc(CC(C)C)cc1 (stereo not shown) [Example 154] |  | 6.34 | 6.05 |  |
| CON=C(COc1ccc(-c2ccc(C3COC(c4c(F)cccc4F)=N3)cc2)cc1)c1ccc(OC(F)(F)C(F)F)cc1 (stereo not shown) [Example 157] |  | 5.28 | 5.04 |  |
| CCON=C(C)C(C)(C)Oc1ccc(-c2ccc(C3COC(c4c(F)cccc4Cl)=N3)cc2)cc1 (stereo not shown) [Example 161] | 5.88 |  |  |  |
| CON=C(C)C(C)(C)Oc1ccc(-c2ccc(C3COC(c4c(F)cccc4F)=N3)cc2)cc1Cl (stereo not shown) [Example 170] | 5.61 |  |  |  |
| CCON=C(C)C(C)(C)Oc1ccc(-c2ccc(C3COC(c4c(F)cccc4F)=N3)cc2)cc1Cl (stereo not shown) [Example 171] | 5.05 |  |  |  |
| CON=C(C)C(C)(C)Oc1ccc(-c2ccc(C3COC(c4ccccc4Cl)=N3)cc2)cc1Cl (stereo not shown) [Example 175] | 6.06 |  |  |  |
| CON=C(COc1ccc(-c2ccc(C3COC(c4c(F)cccc4F)=N3)cc2)cc1)c1ccc(C)c(C)c1 (stereo not shown) [Example 189] |  | 5.58 | 5.29 |  |

Now from value to molecule, other results behind:

| chromatographic logP | chromatographic logP (A isomer) | chromatographic logP (B isomer) | Structure (SMILES) | other results |
| --- | --- | --- | --- | --- |
| 5.57 |  |  | CCON=C(C)C(C)(C)Oc1ccc(-c2ccc(C3COC(c4c(F)cccc4F)=N3)cc2)cc1 (stereo not shown) [Example 99] |  |
| 4.15 |  |  | CC(=O)C(C)Oc1ccc(-c2ccc(C3COC(c4c(F)cccc4F)=N3)cc2)cc1Cl (stereo not shown) [Example 101] |  |
| 4.84 |  |  | CC(C)C(C#N)Oc1ccc(-c2ccc(C3COC(c4c(F)cccc4F)=N3)cc2)cc1Cl (stereo not shown) [Example 102] |  |
| 5.5 |  |  | CON=C(c1cccc(C(F)(F)F)c1)C(C)Oc1ccc(-c2ccc(C3COC(c4c(F)cccc4F)=N3)cc2)cc1 (stereo not shown) [Example 106] |  |
| 5.53 |  |  | CON=C(COc1ccc(-c2ccc(C3COC(c4c(F)cccc4F)=N3)cc2)cc1)c1ccc(C(F)(F)F)cc1 (stereo not shown) [Example 111] |  |
| 4.51 |  |  | CC(=O)C(C)Oc1ccc(-c2ccc(C3COC(c4ccccc4Cl)=N3)cc2)cc1Cl (stereo not shown) [Example 113] |  |
| 4.86 |  |  | Cc1cc(C(=O)COc2ccc(-c3ccc(C4COC(c5c(F)cccc5F)=N4)cc3)cc2)ccc1Cl (stereo not shown) [Example 117] |  |
|  | 5.65 | 5.57 | CCON=C(COc1ccc(-c2ccc(C3COC(c4c(F)cccc4F)=N3)cc2)cc1)c1ccc(Br)cc1 (stereo not shown) [Example 118] |  |
|  | 5.8 | 4.49 | CON=C(COc1ccc(-c2ccc(C3COC(c4c(F)cccc4F)=N3)cc2)cc1)c1cccc(C(F)(F)F)c1 (stereo not shown) [Example 121] |  |
|  | 5.78 | 5.88 | CC(COc1ccc(-c2ccc(C3COC(c4c(F)cccc4Cl)=N3)cc2)cc1)=NOC(C)C (stereo not shown) [Example 124] |  |
|  | 5.45 | 5.53 | CC(COc1ccc(-c2ccc(C3COC(c4c(F)cccc4Cl)=N3)cc2)cc1)=NOCc1ccccc1 (stereo not shown) [Example 126] |  |
|  | 5.06 | 5.15 | CON=C(C)C(C)Oc1ccc(-c2ccc(C3COC(c4c(F)cccc4F)=N3)cc2)cc1Cl (stereo not shown) [Example 127] |  |
|  | 5.61 | 5.54 | CCON=C(COc1ccc(-c2ccc(C3COC(c4c(F)cccc4F)=N3)cc2)cc1)c1ccc(Cl)cc1 (stereo not shown) [Example 131] |  |
|  | 5.42 | 5.71 | CCON=C(COc1ccc(-c2ccc(C3COC(c4c(F)cccc4F)=N3)cc2)cc1)c1ccc(C)cc1 (stereo not shown) [Example 134] |  |
|  | 5.53 | 5.61 | CC(COc1ccc(-c2ccc(C3COC(c4ccccc4Cl)=N3)cc2)cc1)=NOC(C)C (stereo not shown) [Example 135] |  |
|  | 5.88 | 6.02 | CC(=NOC(C)C)C(C)Oc1ccc(-c2ccc(C3COC(c4ccccc4Cl)=N3)cc2)cc1 (stereo not shown) [Example 136] |  |
|  | 4.78 | 4.98 | CON=C(COc1ccc(-c2ccc(C3COC(c4c(F)cccc4F)=N3)cc2)cc1)c1ccc(C(F)F)cc1 (stereo not shown) [Example 138] |  |

| chromatographic logP | chromatographic logP (A isomer) | chromatographic logP (B isomer) | Structure (SMILES) | other results |
| --- | --- | --- | --- | --- |
|  | 5.07 | 5.31 | CCON=C(COc1ccc(-c2ccc(C3COC(c4c(F)cccc4F)=N3)cc2)cc1)c1ccc(C(F)F)cc1 (stereo not shown) [Example 139] |  |
|  | 5.57 | 5.88 | CON=C(COc1ccc(-c2ccc(C3COC(c4c(F)cccc4F)=N3)cc2)cc1)c1ccc(Cl)c(C)c1 (stereo not shown) [Example 140] |  |
|  | 5.93 | 6.23 | CCON=C(COc1ccc(-c2ccc(C3COC(c4c(F)cccc4F)=N3)cc2)cc1)c1ccc(Cl)c(C)c1 (stereo not shown) [Example 141] |  |
|  | 5.87 | 6 | CC(=NOC(C)C)C(C)Oc1ccc(-c2ccc(C3COC(c4c(F)cccc4F)=N3)cc2)cc1Cl (stereo not shown) [Example 146] |  |
|  | 5.49 | 5.58 | C=CCON=C(C)C(C)Oc1ccc(-c2ccc(C3COC(c4c(F)cccc4F)=N3)cc2)cc1Cl (stereo not shown) [Example 147] |  |
| 4.62 |  |  | Cc1ccc(C(=O)COc2ccc(-c3ccc(C4COC(c5c(F)cccc5F)=N4)cc3)cc2)cc1C (stereo not shown) [Example 148] |  |
|  | 4.7 | 4.91 | CON=C(COc1ccc(-c2ccc(C3COC(c4c(F)cccc4F)=N3)cc2)cc1)c1ccc(OC)cc1 (stereo not shown) [Example 149] |  |
|  | 5.04 | 5.27 | CCON=C(COc1ccc(-c2ccc(C3COC(c4c(F)cccc4F)=N3)cc2)cc1)c1ccc(OC)cc1 (stereo not shown) [Example 150] |  |
| 4.56 |  |  | CC(=O)C(C)(C)Oc1ccc(-c2ccc(C3COC(c4ccccc4Cl)=N3)cc2)cc1 (stereo not shown) [Example 152] |  |
| 4.61 |  |  | CC(=O)C(C)(C)Oc1ccc(-c2ccc(C3COC(c4c(F)cccc4F)=N3)cc2)cc1Cl (stereo not shown) [Example 153] |  |
|  | 6.7 | 6.36 | CCON=C(COc1ccc(-c2ccc(C3COC(c4c(F)cccc4F)=N3)cc2)cc1)c1ccc(CC(C)C)cc1 (stereo not shown) [Example 155] |  |
|  | 5.59 | 5.35 | CCON=C(COc1ccc(-c2ccc(C3COC(c4c(F)cccc4F)=N3)cc2)cc1)c1ccc(OC(F)(F)C(F)F)cc1 (stereo not shown) [Example 158] |  |
| 5.45 |  |  | CON=C(C)C(C)(C)Oc1ccc(-c2ccc(C3COC(c4c(F)cccc4Cl)=N3)cc2)cc1 (stereo not shown) [Example 160] |  |
|  | 3.82 | 3.39 | CC(=NO)C(C)(C)Oc1ccc(-c2ccc(C3COC(c4c(F)cccc4F)=N3)cc2)cc1 (stereo not shown) [Example 167] |  |
| 5.02 |  |  | CC(=O)C(C)(C)Oc1ccc(-c2ccc(C3COC(c4ccccc4Cl)=N3)cc2)cc1Cl (stereo not shown) [Example 173] |  |
| 6.49 |  |  | CCON=C(C)C(C)(C)Oc1ccc(-c2ccc(C3COC(c4ccccc4Cl)=N3)cc2)cc1Cl (stereo not shown) [Example 176] |  |
|  | 5.94 | 5.62 | CCON=C(COc1ccc(-c2ccc(C3COC(c4c(F)cccc4F)=N3)cc2)cc1)c1ccc(C)c(C)c1 (stereo not shown) [Example 190] |  |
